Consider 25 compounds from patent publication US12247029B2, “Heterocyclic compounds as class II phosphoinositide 3-kinase inhibitors” (Forschungsverbund Berlin e.V., priority 2018, dated 2025).

The term IC50 denotes the concentration needed to halve the response being measured. As a reminder, the inhibition is the change of the read-out against control, counted positive when it falls.

The target of the test is PI3KC2α Δ1-298 (Homo sapiens (Human), UniProt O00443). Description: ADP-Glo kinase assay with purified PI3KC2α Δ1-298. Conditions: for IC50: read-out: IC50 (PI3KC2α; ADP-Glo™ assay). The format is biochemical. How it is done: Previous studies have shown that PI3KC2α can utilize phosphatidylinositol (PI) or phosphatidylinositol 4-phosphate [PI(4)P] to produce PI(3)P or PI(3,4)P2 respectively but with a preference for PI(3,4)P2 production. To verify that purified PI3KC2α Δ1-298 is active, a radioactive kinase assay was performed with PI as a substrate and different amounts of purified PI3KC2α Δ1-298. The lipid product [PI(3)P] was separated on TLC plates, and the PI(3)P signal was correlated with the amount of PI3KC2α used (FIG. 4A). […] After having confirmed the activity of purified PI3KC2α Δ1-298, an assay suitable for high content screens in multiwell format (ADP-Glo™ assay) was established. The ADP-Glo™ assay has been used for universal detection of ATP hydrolysis. This assay measures ATP hydrolysis occurring during a kinase reaction. For detection, generated ADP is re-converted into ATP with the […] and converted into light by the Ultra-Glo™ Luciferase reagent. The luminescent signal reports kinase activity (FIG. 4B).
The ADP-Glo™ assay was first used to determine the linear correlation range of signal with different amounts of kinase, and then to assess the Kms for ATP and for PI. […] Further optimization of this assay allowed us to carry out medium-to-high throughput screening using low amounts of purified enzyme (at fixed concentrations of: ATP=40 μM, PI=200 μM, PI3KC2α A1−298=10 ng/μl).
Primary screens were performed using the ADP-Glo™ assay in a 384-well format. 37, 224 small molecules were screened for their ability to inhibit kinase activity of PI3KC2α Δ1-298. The concentration of each compound used in the primary screens was 10 μM. Kinase incubations with ATP but without PI were used as negative control samples. This primary screen turned out to be robust with an average z′ factor of 0.57, and therefore judged as successful.
ADP-Glo kinase assay was performed as described by the manufacturer's protocol. Briefly, the kinase assay was performed with a […] of liver PI/ATP/purified PI3KC2α for 20 min in kinase reaction buffer described above. To deplete the remaining ATP from the reaction, 5 μl of […] was added to the kinase reaction mixture and incubated for 40 min. For detection, the generated ADP is re-converted into ATP and converted into light by the Ultra-Glo™ luciferase in kinase detection reagent. The luminescent signal positively correlates with kinase activity. All reactions are performed in Corning® 384 well-white plates.
On the technique in general: ADP-Glo turns the ADP formed in a reaction into a luminescent signal.

Sequence of PI3KC2α Δ1-298 (O00443 299-1686): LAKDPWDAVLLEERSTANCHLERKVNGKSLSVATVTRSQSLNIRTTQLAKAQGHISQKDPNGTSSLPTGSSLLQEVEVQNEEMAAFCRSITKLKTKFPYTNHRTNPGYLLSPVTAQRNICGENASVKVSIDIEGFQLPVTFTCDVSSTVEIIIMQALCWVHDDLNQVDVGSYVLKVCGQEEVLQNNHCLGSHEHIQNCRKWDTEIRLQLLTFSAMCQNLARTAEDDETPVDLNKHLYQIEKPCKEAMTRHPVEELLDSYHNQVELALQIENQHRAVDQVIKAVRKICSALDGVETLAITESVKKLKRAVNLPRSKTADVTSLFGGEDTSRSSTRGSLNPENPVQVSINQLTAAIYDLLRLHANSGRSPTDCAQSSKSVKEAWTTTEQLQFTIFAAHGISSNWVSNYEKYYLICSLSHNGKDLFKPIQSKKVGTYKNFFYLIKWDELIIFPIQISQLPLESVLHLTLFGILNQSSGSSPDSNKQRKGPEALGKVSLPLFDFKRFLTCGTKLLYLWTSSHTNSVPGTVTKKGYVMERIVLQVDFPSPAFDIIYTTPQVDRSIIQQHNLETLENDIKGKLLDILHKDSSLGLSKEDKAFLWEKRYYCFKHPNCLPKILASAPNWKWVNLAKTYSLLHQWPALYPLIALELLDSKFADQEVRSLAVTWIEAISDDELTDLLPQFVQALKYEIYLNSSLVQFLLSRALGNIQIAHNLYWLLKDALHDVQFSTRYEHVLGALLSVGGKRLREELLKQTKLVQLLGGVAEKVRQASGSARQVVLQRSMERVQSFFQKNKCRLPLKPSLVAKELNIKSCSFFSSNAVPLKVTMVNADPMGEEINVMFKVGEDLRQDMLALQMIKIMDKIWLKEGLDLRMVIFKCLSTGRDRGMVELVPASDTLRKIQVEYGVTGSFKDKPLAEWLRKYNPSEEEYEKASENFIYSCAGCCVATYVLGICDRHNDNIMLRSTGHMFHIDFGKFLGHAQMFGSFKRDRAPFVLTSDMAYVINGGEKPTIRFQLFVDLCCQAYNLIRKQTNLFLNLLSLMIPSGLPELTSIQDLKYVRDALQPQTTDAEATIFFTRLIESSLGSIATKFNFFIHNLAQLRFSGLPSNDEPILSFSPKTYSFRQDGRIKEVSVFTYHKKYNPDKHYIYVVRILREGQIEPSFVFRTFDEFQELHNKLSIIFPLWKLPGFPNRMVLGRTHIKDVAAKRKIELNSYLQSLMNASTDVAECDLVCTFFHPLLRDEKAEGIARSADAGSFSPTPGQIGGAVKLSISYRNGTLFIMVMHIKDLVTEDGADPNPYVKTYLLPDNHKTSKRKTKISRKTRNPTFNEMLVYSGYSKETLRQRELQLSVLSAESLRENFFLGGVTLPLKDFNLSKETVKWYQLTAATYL

Regarding `COc1cccc(-c2csc(NC(=O)CSc3nc4nccnc4c(=O)n3CCc3ccccc3)n2)c1` [Example Compound 31, N-(4-(3-Methoxyphenyl)thiazol-2-yl)-2-((4-oxo-3-phenethyl-3,4-dihydropteridin-2-yl)thio)acetamide], the IC50 was 2.4 µM. `O=c1c2nccnc2nc(SCc2nc3ccccc3[nH]2)n1[C@@H]1C[C@H]1c1ccccc1` (relative stereo) [Example Compound 99, trans-2-(((1H-Benzo[d]imidazol-2-yl)methyl)thio)-3-(2-phenylcyclopropyl)pteridin-4(3H)-one]: the IC50 is 1.8 µM. The same measure, in the same setting: as for `O=c1c2nccnc2nc(SCc2nc3ccccc3[nH]2)n1CCc1ccc(O)cc1` [Example Compound 96, 2-(((1H-Benzo[d]imidazol-2-yl)methyl)thio)-3-(4-hydroxyphenethyl)pteridin-4(3H)-one], the figure is 0.1 µM; as for `O=C(CSc1nc2nccnc2c(=O)n1-c1ccccc1)Nc1nccs1` [Example Compound 40, 2-((4-Oxo-3-phenyl-3,4-dihydropteridin-2-yl)thio)-N-(thiazol-2-yl)acetamide], 6.6 µM; as for `CC(C)(C)OC(=O)N1CCC(n2c(SCC(=O)Nc3nccs3)nc3nccnc3c2=O)CC1` [Example Compound 93, tert-Butyl 4-(4-oxo-2-((2-oxo-2-(thiazol-2-ylamino)ethyl)thio)pteridin-3(4H)-yl)piperidine-1-carboxylate], 3.6 µM.

As to `CS(=O)(=O)Nc1ccc(-c2csc(NC(=O)CSc3nc4nccnc4c(=O)n3CCc3ccccc3)n2)cc1` [Example Compound 2, N-(4-(4-(Methylsulfonamido)phenyl)thiazol-2-yl)-2-((4-oxo-3-phenethyl-3,4-dihydropteridin-2-yl)thio)acetamide], the IC50 worked out at 1.7 µM.

On to `O=C(CSc1nc2nccnc2c(=O)n1CCc1cccc(F)c1)Nc1nccs1` [Example Compound 4, 2-((3-(3-Fluorophenethyl)-4-oxo-3,4-dihydropteridin-2-yl)thio)-N-(thiazol-2-yl)acetamide], for which the IC50 amounted to 0.84 µM. For `CC(C)NC(=O)CSc1nc2nccnc2c(=O)n1CCc1ccccc1` [Example Compound 61, N-Isopropyl-2-((4-oxo-3-phenethyl-3,4-dihydropteridin-2-yl)thio)acetamide], the inhibition at 10 µM was 30%. Regarding `O=C(CSc1nc2nccnc2c(=O)n1CCc1ccccc1)Nc1ncco1` [Example Compound 14, N-(Oxazol-2-yl)-2-((4-oxo-3-phenethyl-3,4-dihydropteridin-2-yl)thio)acetamide], the IC50 is 2.8 µM. Consider `O=C(CSc1nc2nccnc2c(=O)n1CCc1ccccc1)Nc1cc(-c2ccccc2)cs1` [Example Compound 27, 2-((4-Oxo-3-phenethyl-3,4-dihydropteridin-2-yl)thio)-N-(4-phenylthiophen-2-yl)acetamide], for which the 50% inhibitory concentration (IC50) is 17.2 µM. Take `NC(=O)c1ccc(-n2c(SCC(=O)Nc3nccs3)nc3nccnc3c2=O)cc1` [Example Compound 41, 4-(4-Oxo-2-((2-oxo-2-(thiazol-2-ylamino)ethyl)thio)pteridin-3(4H)-yl)benzamide]: the IC50 stood at 0.051 µM.

Turning to `Cc1ccnc2[nH]c(CSc3nc4nccnc4c(=O)n3CCc3ccccc3)nc12` [Example Compound 70, 2-(((7-Methyl-3H-imidazo[4,5-b]pyridin-2-yl)methyl)thio)-3-phenethylpteridin-4(3H)-one], the IC50 was 42 µM.

Consider `CC(Sc1nc2nccnc2c(=O)n1CCc1cccc(F)c1)C(=O)Nc1nccs1` (stereo not drawn) [Example Compound 16, 2-((3-(3-Fluorophenethyl)-4-oxo-3,4-dihydropteridin-2-yl)thio)-N-(thiazol-2-yl)propanamide], for which the “PI3KC2α inhibitory activity (in words, SAR)” value is given as “did not disrupt the activity” and the IC50 was determined as 5.2 µM. As for `O=C(CSc1nc2nccnc2c(=O)n1CCc1ccccc1)Nc1nc(C(=O)N2CCOCC2)cs1` [Example Compound 25, N-(4-(Morpholine-4-carbonyl)thiazol-2-yl)-2-((4-oxo-3-phenethyl-3,4-dihydropteridin-2-yl)thio)acetamide], the IC50 stood at 3.5 µM. Regarding `CNC(=O)c1ccc(-n2c(SCC(=O)Nc3nccs3)nc3nccnc3c2=O)cc1` [Example Compound 81, 4 N-Methyl-4-(4-oxo-2-((2-oxo-2-(thiazol-2-ylamino)ethyl)thio)pteridin-3(4H)-yl)benzamide], the IC50 came out at 0.62 µM. Turning to `O=C(CSc1nc2cccnc2c(=O)n1CCc1ccccc1)Nc1nccs1` [Example Compound 13, 2-((4-Oxo-3-phenethyl-3,4-dihydropyrido[3,2-d]pyrimidin-2-yl)thio)-N-(thiazol-2-yl)acetamide], the IC50 is 13 µM. As for `O=C(CSc1nc2nccnc2c(=O)n1CCc1ccccc1)c1ccccc1F` [Example Compound 64, 2-((2-(2-Fluorophenyl)-2-oxoethyl)thio)-3-phenethylpteridin-4(3H)-one], the inhibition at 10 µM was found to be 35%. As to `O=C(CSc1nc2nccnc2c(=O)n1CCc1ccccc1)Nc1ccccc1` [Example Compound 22, 2-((4-Oxo-3-phenethyl-3,4-dihydropteridin-2-yl)thio)-N-phenylacetamide], the IC50 was determined as 3.3 µM. `O=C(CSc1nc2nccnc2c(=O)n1CCc1cccc(F)c1)NC1CC1` [Example Compound 7, N-Cyclopropyl-2-((3-(3-fluorophenethyl)-4-oxo-3,4-dihydropteridin-2-yl)thio)acetamide]: the IC50 came out at 7.1 µM. On to `Cc1ccc(-c2csc(NC(=O)CSc3nc4nccnc4c(=O)n3CCc3ccccc3)n2)s1` [Example Compound 30, N-(4-(5-Methylthiophen-2-yl)thiazol-2-yl)-2-((4-oxo-3-phenethyl-3,4-dihydropteridin-2-yl)thio)acetamide], for which the IC50 came out at 5.8 µM.

Take `O=C(CSc1nc2nccnc2c(=O)n1CCc1ccccc1)Nc1ncc(Br)s1` [Example Compound 29, N-(5-Bromothiazol-2-yl)-2-((4-oxo-3-phenethyl-3,4-dihydropteridin-2-yl)thio)acetamide]: the “PI3KC2α inhibitory activity (in words, SAR)” value is reported as “functional compounds” and the IC50 amounted to 6.6 µM.

With `N#Cc1ccc(-n2c(SCC(=O)Nc3nccs3)nc3nccnc3c2=O)cc1` [Example Compound 85, 2-((3-(4-Cyanophenyl)-4-oxo-3,4-dihydropteridin-2-yl)-thio)-N-(thiazol-2-yl)acetamide], the IC50 stood at 1.2 µM. With `N#Cc1ccc(-c2csc(NC(=O)CSc3nc4nccnc4c(=O)n3CCc3ccccc3)n2)cc1` [Example Compound 50, N-(4-(4-Cyanophenyl)thiazol-2-yl)-2-((4-oxo-3-phenethyl-3,4-dihydropteridin-2-yl)thio)acetamide], the half-maximal inhibitory concentration (IC50) stood at 2.9 µM. Turning to `O=C(CSc1nc2nccnc2c(=O)n1CCc1ccccc1)Nc1nc(-c2ccc3ccccc3c2)cs1` [Example Compound 48, N-(4-(Naphthalen-2-yl)thiazol-2-yl)-2-((4-oxo-3-phenethyl-3,4-dihydropteridin-2-yl)thio)acetamide], the IC50 was determined as 26 µM.

As for `O=C(CCc1nc2nccnc2c(=O)n1CCc1ccccc1)NCCc1ccccc1` [Example Compound 102, 3-(4-Oxo-3-phenethyl-3,4-dihydropteridin-2-yl)-N-phenethylpropanamide], the inhibition at 10 µM turned out to be 36%.
